Results published in patent US20210395239A1 (Hoffmann-La Roche Inc., priority 2018, published 2021).

Biological target: T1, hTLR9 (Homo sapiens, UniProt Q9NR96)
T1 sequence (Q9NR96 26-1032): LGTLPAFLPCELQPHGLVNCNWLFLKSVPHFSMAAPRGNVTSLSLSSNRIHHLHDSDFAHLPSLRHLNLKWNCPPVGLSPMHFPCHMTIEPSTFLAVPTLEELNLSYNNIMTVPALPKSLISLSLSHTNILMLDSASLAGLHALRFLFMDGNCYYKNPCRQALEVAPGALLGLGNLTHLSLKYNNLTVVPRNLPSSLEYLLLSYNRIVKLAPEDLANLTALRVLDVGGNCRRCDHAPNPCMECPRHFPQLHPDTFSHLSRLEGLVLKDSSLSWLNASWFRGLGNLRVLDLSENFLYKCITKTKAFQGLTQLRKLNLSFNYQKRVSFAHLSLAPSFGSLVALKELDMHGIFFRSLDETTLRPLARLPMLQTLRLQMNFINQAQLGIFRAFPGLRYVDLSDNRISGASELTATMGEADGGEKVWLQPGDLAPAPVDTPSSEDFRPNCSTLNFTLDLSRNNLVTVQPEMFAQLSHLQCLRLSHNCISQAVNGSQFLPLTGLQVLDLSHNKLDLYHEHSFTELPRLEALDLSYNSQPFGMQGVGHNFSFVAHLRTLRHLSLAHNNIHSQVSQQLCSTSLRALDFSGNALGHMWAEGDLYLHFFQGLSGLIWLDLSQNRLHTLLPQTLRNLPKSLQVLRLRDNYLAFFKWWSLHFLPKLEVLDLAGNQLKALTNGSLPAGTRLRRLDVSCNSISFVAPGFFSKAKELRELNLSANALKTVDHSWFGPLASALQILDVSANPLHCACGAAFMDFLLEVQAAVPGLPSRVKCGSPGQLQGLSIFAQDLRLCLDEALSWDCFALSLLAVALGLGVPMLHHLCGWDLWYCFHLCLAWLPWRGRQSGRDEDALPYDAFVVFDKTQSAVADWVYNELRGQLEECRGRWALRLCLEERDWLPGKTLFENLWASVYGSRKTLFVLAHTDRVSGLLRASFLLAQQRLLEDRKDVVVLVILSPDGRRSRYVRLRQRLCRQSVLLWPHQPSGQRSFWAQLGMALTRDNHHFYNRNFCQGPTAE
Test: HEK293-Blue-hTLR-9 cells assay (SEAP reporter, ODN2006 stimulation)
Format: cell-based
Set-up: host or cells: HEK293 (HEK-Blue hTLR9)
Conditions: HEK293-Blue-hTLR9 cells, ODN2006, 20 hrs; read-out: HEK/hTLR9 IC50
In short: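 Antagonism read as lowered SEAP reporter absorbance (620–655 nm, QUANTI-Blue, 2 h, 37 °C) in supernatants. Before that, ODN2006-stimulated HEK293-Blue cells stably expressing human TLR9 were exposed to compound dilutions at 1% final DMSO for 20 h at 37 °C.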

Row | Structure (SMILES) | IC50 [nM]
1 | Cc1cc(N2CCN(C[C@H]3CN(c4ccc(C#N)c5ncccc45)C[C@@H](C)O3)CC2)nc(N2CC(N)C(F)(F)C2)n1 (stereo partly drawn) [Example 63, 5-[(2S,6R)-2-[[4-[2-(4-amino-3,3-difluoro-pyrrolidin-1-yl)-6-methyl-pyrimidin-4-yl]piperazin-1-yl]methyl]-6-methyl-morpholin-4-yl]quinoline-8-carbonitrile] | 246
2 | C[C@@H]1CN(c2ccc(C#N)c3ncccc23)C[C@H](CN2CCN(c3cccc(N4CCC(N)CC4)n3)CC2)O1 [Example 36, 5-[(2S,6R)-2-[[4-[6-(4-amino-1-piperidyl)-2-pyridyl]piperazin-1-yl]methyl]-6-methyl-morpholin-4-yl]quinoline-8-carbonitrile] | 118
3 | C[C@@H]1CN(c2ccc(C#N)n3ncc(F)c23)C[C@H](CN2CCN(c3ccc([C@@H]4CNCCO4)cc3)CC2)O1 [Example 177, 3-fluoro-4-[(2R,6S)-2-methyl-6-[[4-[4-[(2R)-morpholin-2-yl]phenyl]piperazin-1-yl]methyl]morpholin-4-yl]pyrazolo[1,5-a]pyridine-7-carbonitrile] | 98
4 | C[C@@H]1CN(c2ccc(C#N)c3ncccc23)C[C@H](CN2CCN(c3ccc(N4CCNCC4)nc3)CC2)O1 [Example 13, 5-[(2R,6S)-2-methyl-6-[[4-(6-piperazin-1-yl-3-pyridyl)piperazin-1-yl]methyl]morpholin-4-yl]quinoline-8-carbonitrile] | 142
5 | C[C@@H]1CN(c2ccc(C#N)c3ncccc23)C[C@H](CN2CCN(c3ccc(N4CC(N)C(F)C4)nc3)CC2)O1 (stereo partly drawn) [Example 44, 5-[(2S,6R)-2-[[4-[6-(3-amino-4-fluoro-pyrrolidin-1-yl)-3-pyridyl]piperazin-1-yl]methyl]-6-methyl-morpholin-4-yl]quinoline-8-carbonitrile] | 164
6 | C[C@@H]1CN(c2ccc(C#N)c3ncccc23)C[C@H](CN2CCN(c3cccc(N4CCNCC(O)C4)n3)CC2)O1 (stereo partly drawn) [Example 41, 5-[(2S,6R)-2-[[4-[6-(6-hydroxy-1,4-diazepan-1-yl)-2-pyridyl]piperazin-1-yl]methyl]-6-methyl-morpholin-4-yl]quinoline-8-carbonitrile] | 150
7 | C[C@@H]1CN(c2ccc(C#N)c3ncccc23)C[C@H](CN2CCN(c3ccnc(OCCN(C)C)n3)CC2)O1 [Example 30, 5-[(2S,6R)-2-[[4-[2-[2-(dimethylamino)ethoxy]pyrimidin-4-yl]piperazin-1-yl]methyl]-6-methyl-morpholin-4-yl]quinoline-8-carbonitrile] | 250
8 | C[C@@H]1CN(c2cc(=O)n(C)c3ncccc23)C[C@H](CN2CC(c3ccc(N4CC(C)(N)C4)cc3)C2)O1 [Example 176, 4-[(2S,6R)-2-[[3-[4-(3-amino-3-methyl-azetidin-1-yl)phenyl]azetidin-1-yl]methyl]-6-methyl-morpholin-4-yl]-1-methyl-1,8-naphthyridin-2-one] | 101
9 | C[C@@H]1CN(c2ccc(C#N)n3ncc(F)c23)C[C@H](CN2CCN(c3ccc(C4CNCCO4)cc3F)CC2)O1 (stereo in doubt) [Example 183, 3-fluoro-4-[(2S,6R)-2-[[4-[2-fluoro-4-[(2S)-morpholin-2-yl]phenyl]piperazin-1-yl]methyl]-6-methyl-morpholin-4-yl]pyrazolo[1,5-a]pyridine-7-carbonitrile] | 120
10 | C[C@@H]1CN(c2ccc(C#N)c3ncccc23)C[C@H](CN2CCN(c3ccnc(N4CCN(C(=O)CN(C)C)CC4)n3)CC2)O1 [Example 32, 5-[(2S,6R)-2-[[4-[2-[4-[2-(dimethylamino)acetyl]piperazin-1-yl]pyrimidin-4-yl]piperazin-1-yl]methyl]-6-methyl-morpholin-4-yl]quinoline-8-carbonitrile] | 73
11 | C[C@@H]1CN(c2ccc(C#N)c3ncccc23)C[C@H](CN2CCN(c3ccnc(N4CCN(C(=O)C5CCN5)CC4)n3)CC2)O1 (stereo partly drawn) [Example 34, 5-[(2S,6R)-2-[[4-[2-[4-(azetidine-2-carbonyl)piperazin-1-yl]pyrimidin-4-yl]piperazin-1-yl]methyl]-6-methyl-morpholin-4-yl]quinoline-8-carbonitrile] | 71
12 | C[C@@H]1CN(c2ccc(C#N)n3ncc(F)c23)C[C@H](CN2CCN(c3ccc([C@@H]4CNCCO4)c(F)c3)CC2)O1 [Example 184, 3-fluoro-4-[(2S,6R)-2-[[4-[3-fluoro-4-[(2R)-morpholin-2-yl]phenyl]piperazin-1-yl]methyl]-6-methyl-morpholin-4-yl]pyrazolo[1,5-a]pyridine-7-carbonitrile] | 124
13 | C[C@@H]1CN(c2ccc(C#N)n3ncc(F)c23)C[C@H](CN2CCN(c3ccc(N4CCOC5(CNC5)C4)nc3)CC2)O1 [Example 178, 3-fluoro-4-[(2R,6S)-2-methyl-6-[[4-[6-(5-oxa-2,8-diazaspiro[3.5]nonan-8-yl)-3-pyridyl]piperazin-1-yl]methyl]morpholin-4-yl]pyrazolo[1,5-a]pyridine-7-carbonitrile] | 116
14 | Cc1cc(N2CCN(C[C@H]3CN(c4ccc(C#N)c5ncccc45)C[C@@H](C)O3)CC2)nc(N2CCNCC2)n1 [Example 47, 5-[(2R,6S)-2-methyl-6-[[4-(6-methyl-2-piperazin-1-yl-pyrimidin-4-yl)piperazin-1-yl]methyl]morpholin-4-yl]quinoline-8-carbonitrile] | 67
15 | C[C@@H]1CN(c2ccc(C#N)c3ncccc23)C[C@H](CN2CCN(c3ccc([C@H]4CNCCO4)cc3)CC2)O1 [Example 20, 5-[(2R,6S)-2-methyl-6-[[4-[4-[(2S)-morpholin-2-yl]phenyl]piperazin-1-yl]methyl]morpholin-4-yl]quinoline-8-carbonitrile] | 96

The remaining compounds from weak to strong by IC50, led by results:

Row | IC50 [nM] | Structure (SMILES)
16 | 66 | C[C@@H]1CN(c2ccc(C#N)n3ncc(F)c23)C[C@H](CN2CCN(c3ccc(N4CC[C@@H](N)[C@H](F)C4)nc3)CC2)O1 [Example 175, 4-[(2S,6R)-2-[[4-[6-[(3R,4R)-4-amino-3-fluoro-1-piperidyl]-3-pyridyl]piperazin-1-yl]methyl]-6-methyl-morpholin-4-yl]-3-fluoro-pyrazolo[1,5-a]pyridine-7-carbonitrile]
17 | 60 | C[C@@H]1CN(c2cc(=O)n(C)c3ncccc23)C[C@H](CN2CC(c3ccc(N4CC5(CNCCO5)C4)cc3)C2)O1 [Example 173, 1-methyl-4-[(2R,6S)-2-methyl-6-[[3-[4-(5-oxa-2,8-diazaspiro[3.5]nonan-2-yl)phenyl]azetidin-1-yl]methyl]morpholin-4-yl]-1,8-naphthyridin-2-one]
18 | 57 | COC1CN(c2ccc(C3CN(C[C@H]4CN(c5cc(=O)n(C)c6ncccc56)C[C@@H](C)O4)C3)cc2)C[C@H]1N (stereo in doubt) [Example 172, 4-[(2S,6R)-2-[[3-[4-[(3R,4R)-3-amino-4-methoxy-pyrrolidin-1-yl]phenyl]azetidin-1-yl]methyl]-6-methyl-morpholin-4-yl]-1-methyl-1,8-naphthyridin-2-one]
19 | 45 | Cc1cc(N2CCN(C[C@H]3CN(c4ccc(C#N)c5ncccc45)C[C@@H](C)O3)CC2)nc(N2C[C@@H]3COC[C@@H](C2)N3)n1 [Example 58, 5-[(2R,6S)-2-methyl-6-[[4-[6-methyl-2-[(1R,5R)-3-oxa-7,9-diazabicyclo[3.3.1]nonan-7-yl]pyrimidin-4-yl]piperazin-1-yl]methyl]morpholin-4-yl]quinoline-8-carbonitrile]
20 | 35 | C[C@@H]1CN(c2cc(=O)n(C)c3ncccc23)C[C@H](CN2CC(c3ccc(N4CCNCC4)cc3)C2)O1 [Example 171, 1-methyl-4-[(2R,6S)-2-methyl-6-[[3-(4-piperazin-1-ylphenyl)azetidin-1-yl]methyl]morpholin-4-yl]-1,8-naphthyridin-2-one]
21 | 32 | CO[C@H]1CN(c2nc(C)cc(N3CCN(C[C@H]4CN(c5ccc(C#N)c6ncccc56)C[C@@H](C)O4)CC3)n2)C[C@H]1N [Example 60, 5-[(2R,6S)-2-methyl-6-[[4-[6-methyl-2-[cis-3-amino-4-methoxy-pyrrolidin-1-yl]pyrimidin-4-yl]piperazin-1-yl]methyl]morpholin-4-yl]quinoline-8-carbonitrile]
22 | 32 | C[C@@H]1CN(c2ccc(C#N)c3ncccc23)C[C@H](CN2CCN(c3cnc(N4CCNCC4)nc3)CC2)O1 [Example 12, 5-[(2R,6S)-2-methyl-6-[[4-(2-piperazin-1-ylpyrimidin-5-yl)piperazin-1-yl]methyl]morpholin-4-yl]quinoline-8-carbonitrile]
